In US6830893B2 (priority 1999, dated 2004):
Entries after “also recorded” stand apart in the source; their conditions may differ. Read-outs that look alike come from different tables or passages of the source.

Columns and labels:
human neutrophils = format: cell-based
[1] = test system: human peripheral blood monocytes; format: cell-based
HIV-1 = conditions: T lymphocyte tropic and monocyte tropic HIV-1; Lawless et al. 1996; cited from earlier work
FPRL1 [2] = biological target: T1, FPRL1 (Homo sapiens, UniProt P25090); test: Chemotaxis of FPRL1/293 cells; format: cell-based; conditions: for migration / chemotaxis of FPRL1/293 cells: wide range of concentrations
T1 construct: expressed in transfected cells; host or cells: human embryonic kidney (HEK) 293 cells, designated FPRL1/293
T1 sequence (P25090 1-351): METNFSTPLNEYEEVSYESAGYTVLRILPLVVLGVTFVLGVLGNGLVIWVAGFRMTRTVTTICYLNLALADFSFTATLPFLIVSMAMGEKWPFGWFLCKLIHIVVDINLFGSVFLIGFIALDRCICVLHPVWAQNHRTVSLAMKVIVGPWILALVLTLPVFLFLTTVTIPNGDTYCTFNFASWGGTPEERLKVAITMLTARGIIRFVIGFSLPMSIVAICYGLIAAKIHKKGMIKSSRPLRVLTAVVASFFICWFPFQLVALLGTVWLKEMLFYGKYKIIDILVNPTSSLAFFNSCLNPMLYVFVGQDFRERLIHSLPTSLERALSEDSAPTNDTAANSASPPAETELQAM
Protocol: The chemotactic response of cells transfected with a nucleic acid encoding FPR or FPRL1 was tested as another sensitive parameter to assess the receptor targets of T21/DP107. (Gong et al., J. Biol. Chem. 273: 4289 (1998); Gong et al., J. Biol. Chem. 272:11682 (1997); and Ben-Baruch et al., J. Biol. Chem. 270: 22123 (1995)). Accordingly, different concentrations of T21/DP107 were placed in the lower wells of a chemotaxis chamber and a cell suspension was placed in the upper wells. The upper and lower wells were separated by polycarbonate filters precoated with mouse collagen type I. After incubation, the cells that migrated across the filters were stained and counted. […] The CI (chemotaxis index), which represents the fold increase of leukocyte migration in response to T21/DP107 over control medium, was also determined. […] (FIG. 9B).
Leukocytes, ETFR and FPRL1/293 cell migration was assessed using a 48-well microchemotaxis chamber technique as previously described. (Gong et al., J. Biol. Chem. 273: 4289 (1998); Gong et al., J. Biol. Chem. 272: 11682 (1997); and Kliger et al., J. Biol. Chem. 272: 13496 (1997)). Different concentrations of stimulants were placed in wells of the lower compartment of the chamber (Neuro Probe, Cabin John, Mass.), the cell suspension was seeded in wells of the upper compartment which was separated from the lower compartment by a polycarbonate filter (Osmonics, Livermore, Calif.; 5 μm-pore size for leukocytes, 10 μm pore-size for ETFR and FPRL1/293 cells). For CD3+ T lymphocytes, the filters were precoated with 20 μg/ml bovine fibronectin (Sigma). The filters for ETFR and FPRL1/293 cell migration were precoated with 50 μg/ml collagen type I (Collaborative Biomedical products, Bedford, Mass.) to favor the attachment of the cells. After incubation at 37° C. (90 min for monocytes, 60 min for neutrophils, 180 min for T cells and 300 min for ETFR or FPRL1/293 cells), the filters were removed, stained and the cells migrating across the filter were counted by light microscopy after coding the samples. […] The significance of the increase in cell migration was determined using Student's t test and CI≧2 was statistically significant compared to medium control (at least p<0.05).

neutrophils = test: Calcium mobilization (Fura-2) in human neutrophils; format: cell-based
FPRL1 [3] = biological target: T1, FPRL1; format: cell-based
Protocol: (Prossnitz and Ye, Pharmacol. Ther. 74: 73 (1997); Murphy, The N-formyl peptide chemotactic receptors, Chemoattractant ligands and their receptors. CRC Press, Boca Raton, p. 269 (1996); and Gao and M. Murphy, J. Biol. Chem. 268: 25395 (1993)).
(§1) Calcium mobilization was assayed by incubating 107/ml of monocytes, neutrophils, FPRL1 or ETFR transfectants in loading buffer containing 138 mM NaCl, 6 mM KCl, 1 mM CaCl2, 10 mM HEPES (pH 7.4), 5 mM glucose, 0.1% BSA with 5 μM Fura-2 (Sigma) at 37° C. for 30 min. The dye-loaded cells were washed and resuspended in fresh loading buffer. The cells were then transferred into quartz cuvettes ([…] in 2 ml) which were placed in a luminescence spectrometer LS50 B (Perkin-Elmer Limited, Beaconsfield, England). Stimulants at different concentrations were added in a volume of 20 μl to the cuvettes at indicated time points. The ratio of fluorescence at 340 and 380 nm wavelength was calculated using the FL WinLab program (Perkin Elmer).

human monocytes = test: Calcium mobilization (Fura-2) in human monocytes; format: cell-based
mock-transfected cells = test: Chemotaxis of mock-transfected cells; format: cell-based, rat; conditions: FIG. 3E
[4] = test system: mock-transfected parental cells; test: Calcium mobilization in parental or mock-transfected rat basophil cell line; format: cell-based; conditions: rat basophil cell line without FPR
Protocol: as §1, with “neutrophils” for “neutrophils, FPRL1”, “cells” for “transfectants”, “transfered” for “transferred”

HEK 293 cells = test: Calcium mobilization in parental or mock transfected HEK 293 cells; format: cell-based, human; conditions: control experiments
Protocol: (FIGS. 8C1, 8C2, 8F1, and 8F2).
as §1

[5] = monocytes, pertussis toxin at 100 ng/ml for 30 min at 37° C. (FIG. 1B)
[6] = monocytes, pertussis toxin at 100 ng/ml for 30 min at 37° C. (FIG. 6B)

CO[C@H]1[C@@H](OC)C[C@H](C)[C@@H](OC)C2=CC(=O)C=C(NC(=O)/C(C)=C/C=C\[C@H](OC)[C@@H](OC(N)=O)/C(C)=C/[C@@H]1C)C2=O [herbimycin A]
inhibition of T20/DP178-induced migration by pretreatment of the cells (human neutrophils; neutrophils): not
inhibition of T21/DP107-induced migration by pretreatment of the cells (human neutrophils; neutrophils): not
inhibition of T20/DP178-induced migration by pretreatment of the cells [1, 5]: not
inhibition of T21/DP107-induced migration by pretreatment of the cells [1, 6]: not

pertussis toxin
inhibition of T20/DP178-induced migration by pretreatment of the cells (human neutrophils; neutrophils): completely inhibited
inhibition of T21/DP107-induced migration by pretreatment of the cells (human neutrophils; neutrophils): completely inhibited
inhibition of T20/DP178-induced migration by pretreatment of the cells [1, 5]: completely inhibited
inhibition of T21/DP107-induced migration by pretreatment of the cells [1, 6]: inhibition; also recorded: completely inhibited

cholera toxin
inhibition of T20/DP178-induced migration by pretreatment of the cells (human neutrophils): not
inhibition of T21/DP107-induced migration by pretreatment of the cells (human neutrophils): not
inhibition of T20/DP178-induced migration by pretreatment of the cells [1]: not
inhibition of T21/DP107-induced migration by pretreatment of the cells [1]: not

QNQQEKNEQELLELDKWASLWNWF [T914]
anti-HIV-1 fusion activity (HIV-1): ineffective

CCCCC[C@H](O)/C=C/C=C\C=C\C=C\[C@@H](O)[C@@H](O)CCCC(=O)O [LXA4, lipoxin A4]
migration / chemotaxis of FPRL1/293 cells (FPRL1 [2]): did not detect significant induction
migration / chemotaxis of FPRL1/293 cells (FPRL1 [2]; listed as lipoxin A4): not able to induce
inhibition of T21/DP107 signaling (neutrophils; phagocytes (neutrophils), commercially available LXA4 (Biomol)): nor did we observe inhibition
induction of Ca++ mobilization in FPRL1 expressing cells (FPRL1 [3]; FPRL1/293 cells): did not detect significant induction
inhibition of T21/DP107 signaling (FPRL1 [3]; FPRL1/293 cells, commercially available LXA4 (Biomol)): nor did we observe inhibition
induction of Ca++ mobilization in FPRL1 expressing cells (FPRL1 [3]; FPRL1/293 cells, listed as lipoxin A4): not able to induce
inhibition of T21/DP107 signaling (human monocytes; phagocytes (monocytes), commercially available LXA4 (Biomol)): nor did we observe inhibition

CSCC[C@H](NC=O)C(=O)N[C@@H](CC(C)C)C(=O)N[C@@H](Cc1ccccc1)C(=O)O [fMLP, N-formyl-methionyl-leucyl-phenylalanine]
migration / chemotaxis of FPRL1 expressing cells (FPRL1 [2]; at concentrations as high as 50 μM (5×10−5 M)): does not induce significant chemotaxis; also recorded: failed to induce significant migration
migration / chemotaxis of FPRL1/293 cells (FPRL1 [2]): failed to migrate
migration across the filters (microscopy at 200× magnification) (human neutrophils): significant migration
desensitizing effect on T20/DP178-induced Ca++ mobilization (neutrophils; neutrophils, fMLP 100 nM, T20/DP178 100 nM): desensitizes; also recorded: marked desensitizing effect
desensitizing effect on T21/DP107-induced Ca++ mobilization (neutrophils; neutrophils, high concentrations (≧1 μM) of fMLP, T21/DP107 1 μM): desensitizes; also recorded: partial desensitizing effect
migration across the filters (microscopy at 200× magnification) ([1]; monocytes, 100 nM): significant migration
migration of mock-transfected cells (mock-transfected cells): did not induce migration
desensitization of T21/DP107-induced Ca++ mobilization (FPRL1 [3]): desensitizes
minimal effective concentration to induce Ca++ mobilization (FPRL1 [3]): low μM range
desensitizing effect on T20/DP178-induced Ca++ mobilization (human monocytes; monocytes, fMLP 100 nM, T20/DP178 100 nM): desensitizes; also recorded: marked desensitizing effect
desensitizing effect on T21/DP107-induced Ca++ mobilization (human monocytes; monocytes, high concentrations (≧1 μM) of fMLP, T21/DP107 1 μM): desensitizes; also recorded: partial desensitizing effect
Ca++ flux in parental or mock-transfected cells [4]: Neither peptide stimulated; also recorded: did not induce any
Ca++ mobilization in parental or mock transfected HEK 293 cells (HEK 293 cells): did not induce any
